Experimental data reported in the NIST ThermoML archive (doi:10.1021/je800218g).
± gives the expanded uncertainty stated by the source.

Experiment: activity coefficient (dimensionless); of the first substance listed, at infinite dilution; xn = mol fraction of the nth substance listed
Conditions: Liquid, Chromatography, x1 = 0

Compound | activity coefficient (303.15 K) | activity coefficient (313.15 K) | activity coefficient (323.15 K) | activity coefficient (333.15 K) | activity coefficient (343.15 K) | activity coefficient (353.15 K) | activity coefficient (363.15 K)
Cc1ccccc1C [1,2-dimethylbenzene] + CCn1cc[n+](C)c1.F[B-](F)(F)F | 4.73 ± 0.5 | 4.69 ± 0.49 | 4.64 ± 0.49 | 4.58 ± 0.48 | 4.5 ± 0.47 | 4.41 ± 0.46 | 4.34 ± 0.46
Cc1cccc(C)c1 [1,3-dimethylbenzene] + CCn1cc[n+](C)c1.F[B-](F)(F)F | 5.88 ± 0.62 | 5.71 ± 0.6 | 5.57 ± 0.59 | 5.32 ± 0.56 | 5.17 ± 0.54 | 4.98 ± 0.52 | 4.83 ± 0.51
Cc1ccc(C)cc1 [1,4-dimethylbenzene] + CCn1cc[n+](C)c1.F[B-](F)(F)F | 5.41 ± 0.57 | 5.3 ± 0.56 | 5.14 ± 0.54 | 5.03 ± 0.53 | 4.96 ± 0.52 | 4.88 ± 0.51 | 4.76 ± 0.5
CC(C)CC(C)(C)C [2,2,4-trimethylpentane] + CCn1cc[n+](C)c1.F[B-](F)(F)F | 158 ± 17 | 143 ± 15 | 124 ± 13 | 112 ± 12 | 101 ± 11 | 85.8 ± 9 | 75.3 ± 7.9
CC(C)=O [acetone] + CCn1cc[n+](C)c1.F[B-](F)(F)F | 1.23 ± 0.13 | 1.26 ± 0.13 | 1.27 ± 0.13 | 1.29 ± 0.13 | 1.31 ± 0.14 | 1.33 ± 0.14 | 1.33 ± 0.14
CC#N [acetonitrile] + CCn1cc[n+](C)c1.F[B-](F)(F)F | 0.892 ± 0.091 | 0.875 ± 0.09 | 0.853 ± 0.087 | 0.832 ± 0.085 | 0.814 ± 0.084 | 0.792 ± 0.082 | 0.769 ± 0.079
c1ccccc1 [benzene] + CCn1cc[n+](C)c1.F[B-](F)(F)F | 2.13 ± 0.22 | 2.11 ± 0.22 | 2.09 ± 0.22 | 2.05 ± 0.21 | 2.02 ± 0.21 | 1.99 ± 0.21 | 1.96 ± 0.21
CCCCCCCCCC [decane] + CCn1cc[n+](C)c1.F[B-](F)(F)F | 1110 ± 120 | 984 ± 100 | 861 ± 91 | 751 ± 79 | 643 ± 68 | 545 ± 58 | 456 ± 48
ClCCl [dichloromethane] + CCn1cc[n+](C)c1.F[B-](F)(F)F | 1.12 ± 0.12 | 1.16 ± 0.12 | 1.21 ± 0.12 | 1.25 ± 0.13 | 1.32 ± 0.14 | 1.36 ± 0.14 | 1.39 ± 0.14
ClC(Cl)(Cl)Cl [tetrachloromethane] + CCn1cc[n+](C)c1.F[B-](F)(F)F | 4.31 ± 0.45 | 4.41 ± 0.46 | 4.56 ± 0.48 | 4.66 ± 0.49 | 4.8 ± 0.5 | 4.89 ± 0.51 | 4.98 ± 0.52
Cc1ccccc1 [toluene] + CCn1cc[n+](C)c1.F[B-](F)(F)F | 3.68 ± 0.39 | 3.66 ± 0.38 | 3.62 ± 0.38 | 3.56 ± 0.37 | 3.52 ± 0.37 | 3.48 ± 0.37 | 3.4 ± 0.36

The next lines start with the values.

activity coefficient (303.15 K) | activity coefficient (313.15 K) | activity coefficient (323.15 K) | activity coefficient (333.15 K) | activity coefficient (343.15 K) | activity coefficient (353.15 K) | activity coefficient (363.15 K) | Compound
1.35 ± 0.14 | 1.4 ± 0.14 | 1.42 ± 0.15 | 1.44 ± 0.15 | 1.47 ± 0.15 | 1.49 ± 0.15 | 1.51 ± 0.16 | C1COCCO1 [1,4-dioxane] + CCn1cc[n+](C)c1.F[B-](F)(F)F
70.5 ± 7.4 | 60.9 ± 6.4 | 49.7 ± 5.2 | 39.6 ± 4.2 | 31.2 ± 3.3 | 27.5 ± 2.9 | 21.9 ± 2.3 | C1CCCCC1 [cyclohexane] + CCn1cc[n+](C)c1.F[B-](F)(F)F
21.8 ± 2.3 | 19.6 ± 2.1 | 16.6 ± 1.8 | 14.4 ± 1.5 | 12.8 ± 1.3 | 10.5 ± 1.1 | 9.13 ± 0.96 | C1=CCCCC1 [cyclohexene] + CCn1cc[n+](C)c1.F[B-](F)(F)F
2.94 ± 0.31 | 2.92 ± 0.31 | 2.89 ± 0.3 | 2.87 ± 0.3 | 2.83 ± 0.3 | 2.79 ± 0.29 | 2.75 ± 0.29 | CCOC(C)=O [ethyl acetate] + CCn1cc[n+](C)c1.F[B-](F)(F)F
6.49 ± 0.68 | 6.3 ± 0.66 | 6.11 ± 0.64 | 5.89 ± 0.62 | 5.58 ± 0.59 | 5.44 ± 0.57 | 5.31 ± 0.56 | CCc1ccccc1 [ethylbenzene] + CCn1cc[n+](C)c1.F[B-](F)(F)F
154 ± 16 | 138 ± 15 | 124 ± 13 | 111 ± 12 | 104 ± 11 | 96 ± 10 | 90.4 ± 9.5 | CCCCCCC [heptane] + CCn1cc[n+](C)c1.F[B-](F)(F)F
101 ± 11 | 95.3 ± 10 | 90.6 ± 9.5 | 85.3 ± 9 | 77.4 ± 8.2 | 74.5 ± 7.8 | 69.5 ± 7.3 | CCCCCC [hexane] + CCn1cc[n+](C)c1.F[B-](F)(F)F
93 ± 9.8 | 79.7 ± 8.4 | 67.7 ± 7.1 | 58.9 ± 6.2 | 51.4 ± 5.4 | 43.3 ± 4.6 | 32.3 ± 3.4 | CC1CCCCC1 [methylcyclohexane] + CCn1cc[n+](C)c1.F[B-](F)(F)F
319 ± 34 | 294 ± 31 | 272 ± 29 | 254 ± 27 | 248 ± 26 | 235 ± 25 | 224 ± 24 | CCCCCCCCC [nonane] + CCn1cc[n+](C)c1.F[B-](F)(F)F
216 ± 23 | 201 ± 21 | 187 ± 20 | 173 ± 18 | 158 ± 17 | 149 ± 16 | 140 ± 15 | CCCCCCCC [octane] + CCn1cc[n+](C)c1.F[B-](F)(F)F
68.8 ± 7.2 | 62.5 ± 6.6 | 57.6 ± 6.1 | 53.9 ± 5.7 | 49 ± 5.2 | 45.7 ± 4.8 | 42.1 ± 4.4 | CCCCC [pentane] + CCn1cc[n+](C)c1.F[B-](F)(F)F
3.38 ± 0.35 | 3.44 ± 0.36 | 3.49 ± 0.37 | 3.56 ± 0.37 | 3.62 ± 0.38 | 3.65 ± 0.38 | 3.73 ± 0.39 | C=Cc1ccccc1 [styrene] + CCn1cc[n+](C)c1.F[B-](F)(F)F
1.87 ± 0.2 | 1.85 ± 0.19 | 1.83 ± 0.19 | 1.82 ± 0.19 | 1.8 ± 0.19 | 1.77 ± 0.18 | 1.74 ± 0.18 | C1CCOC1 [tetrahydrofuran] + CCn1cc[n+](C)c1.F[B-](F)(F)F
1.36 ± 0.14 | 1.38 ± 0.14 | 1.39 ± 0.14 | 1.41 ± 0.15 | 1.43 ± 0.15 | 1.46 ± 0.15 | 1.5 ± 0.15 | ClC(Cl)Cl [trichloromethane] + CCn1cc[n+](C)c1.F[B-](F)(F)F
